Reference: the CheMixHub ionic liquid set
± gives the uncertainty stated by the source.

Experiment: xn = mol fraction of the nth substance listed
Conditions: 100 kPa

CCCC[N+]1(C)CCCC1.N#C[C-](C#N)C#N + O
Conditions | electrical conductivity [S/m] | viscosity [mPa·s]
288.15 K, x2 = 0.0718 | 0.723 ± 0.015 | 40.02 ± 0.89
288.15 K, x2 = 0.1358 | 0.799 ± 0.016 | 35.64 ± 0.78
288.15 K, x2 = 0.1942 | 0.872 ± 0.018 | 32.15 ± 0.7
288.15 K, x2 = 0.2886 | 0.993 ± 0.02 | 27.21 ± 0.58
288.15 K, x2 = 0.3569 | 1.09 ± 0.022 | 24.1 ± 0.51
288.15 K, x2 = 0.431 | 1.21 ± 0.024 | 21.17 ± 0.45
288.15 K, x2 = 0.5238 | 1.38 ± 0.028 | 17.74 ± 0.37
288.15 K, x2 = 0.6162 | 1.55 ± 0.031 | 15 ± 0.31
288.15 K, x2 = 0.7143 | 1.8 ± 0.036 | 12.05 ± 0.25
288.15 K, x2 = 0.7708 | 1.9 ± 0.038 | 10.98 ± 0.22
293.15 K, x2 = 0.0718 | 0.882 ± 0.018 | 32.78 ± 0.73
293.15 K, x2 = 0.1358 | 0.957 ± 0.019 | 29.3 ± 0.65
293.15 K, x2 = 0.1942 | 1.04 ± 0.021 | 26.51 ± 0.58
293.15 K, x2 = 0.2886 | 1.18 ± 0.024 | 22.51 ± 0.48
293.15 K, x2 = 0.3569 | 1.3 ± 0.026 | 20 ± 0.43
293.15 K, x2 = 0.431 | 1.44 ± 0.029 | 17.55 ± 0.37
293.15 K, x2 = 0.5238 | 1.63 ± 0.033 | 14.75 ± 0.31
293.15 K, x2 = 0.6162 | 1.86 ± 0.037 | 12.41 ± 0.26
293.15 K, x2 = 0.7143 | 2.14 ± 0.043 | 9.96 ± 0.2
293.15 K, x2 = 0.7708 | 2.26 ± 0.045 | 9.06 ± 0.19
298.15 K, x2 = 0.0718 | 1.05 ± 0.021 | 27.26 ± 0.61
298.15 K, x2 = 0.1358 | 1.13 ± 0.023 | 24.45 ± 0.54
298.15 K, x2 = 0.1942 | 1.23 ± 0.025 | 22.18 ± 0.48
298.15 K, x2 = 0.2886 | 1.39 ± 0.028 | 18.9 ± 0.41
298.15 K, x2 = 0.3569 | 1.52 ± 0.031 | 16.78 ± 0.36
298.15 K, x2 = 0.431 | 1.69 ± 0.034 | 14.76 ± 0.31
298.15 K, x2 = 0.5238 | 1.92 ± 0.038 | 12.43 ± 0.26
298.15 K, x2 = 0.6162 | 2.18 ± 0.044 | 10.42 ± 0.22
298.15 K, x2 = 0.7143 | 2.52 ± 0.051 | 8.36 ± 0.17
298.15 K, x2 = 0.7708 | 2.67 ± 0.053 | 7.58 ± 0.16
303.15 K, x2 = 0.0718 | 1.22 ± 0.025 | 22.88 ± 0.51
303.15 K, x2 = 0.1358 | 1.32 ± 0.027 | 20.68 ± 0.46
303.15 K, x2 = 0.1942 | 1.43 ± 0.029 | 18.8 ± 0.41
303.15 K, x2 = 0.2886 | 1.61 ± 0.032 | 16.06 ± 0.35
303.15 K, x2 = 0.3569 | 1.76 ± 0.035 | 14.28 ± 0.3
303.15 K, x2 = 0.431 | 1.96 ± 0.039 | 12.58 ± 0.27
303.15 K, x2 = 0.5238 | 2.22 ± 0.045 | 10.62 ± 0.22
303.15 K, x2 = 0.6162 | 2.52 ± 0.051 | 8.87 ± 0.18
303.15 K, x2 = 0.7143 | 2.93 ± 0.059 | 7.1 ± 0.15
303.15 K, x2 = 0.7708 | 3.09 ± 0.062 | 6.47 ± 0.13
308.15 K, x2 = 0.0718 | 1.42 ± 0.028 | 19.58 ± 0.44
308.15 K, x2 = 0.1358 | 1.53 ± 0.031 | 17.69 ± 0.39
308.15 K, x2 = 0.1942 | 1.65 ± 0.033 | 16.13 ± 0.35
308.15 K, x2 = 0.2886 | 1.85 ± 0.037 | 13.82 ± 0.3
308.15 K, x2 = 0.3569 | 2.03 ± 0.041 | 12.3 ± 0.26
308.15 K, x2 = 0.431 | 2.22 ± 0.045 | 10.84 ± 0.23
308.15 K, x2 = 0.5238 | 2.56 ± 0.051 | 9.18 ± 0.19
308.15 K, x2 = 0.6162 | 2.9 ± 0.058 | 7.65 ± 0.16
308.15 K, x2 = 0.7143 | 3.35 ± 0.067 | 6.11 ± 0.13
308.15 K, x2 = 0.7708 | 3.54 ± 0.071 | 5.56 ± 0.11
313.15 K, x2 = 0.0718 | 1.62 ± 0.032 | 16.87 ± 0.38
313.15 K, x2 = 0.1358 | 1.74 ± 0.035 | 15.26 ± 0.34
313.15 K, x2 = 0.1942 | 1.87 ± 0.038 | 13.96 ± 0.3
313.15 K, x2 = 0.2886 | 2.11 ± 0.042 | 12 ± 0.26
313.15 K, x2 = 0.3569 | 2.3 ± 0.046 | 10.7 ± 0.23
313.15 K, x2 = 0.431 | 2.54 ± 0.051 | 9.44 ± 0.2
313.15 K, x2 = 0.5238 | 2.89 ± 0.058 | 8.02 ± 0.17
313.15 K, x2 = 0.6162 | 3.28 ± 0.066 | 6.68 ± 0.14
313.15 K, x2 = 0.7143 | 3.81 ± 0.076 | 5.31 ± 0.11
313.15 K, x2 = 0.7708 | 4.02 ± 0.081 | 4.83 ± 0.1
318.15 K, x2 = 0.0718 | 1.84 ± 0.037 | 14.68 ± 0.33
318.15 K, x2 = 0.1358 | 1.97 ± 0.04 | 13.34 ± 0.29
318.15 K, x2 = 0.1942 | 2.12 ± 0.042 | 12.27 ± 0.27
318.15 K, x2 = 0.2886 | 2.37 ± 0.048 | 10.52 ± 0.23
318.15 K, x2 = 0.3569 | 2.6 ± 0.052 | 9.39 ± 0.2
318.15 K, x2 = 0.431 | 2.87 ± 0.057 | 8.29 ± 0.18
318.15 K, x2 = 0.5238 | 3.25 ± 0.065 | 7.06 ± 0.15
318.15 K, x2 = 0.6162 | 3.7 ± 0.074 | 5.83 ± 0.12
318.15 K, x2 = 0.7143 | 4.28 ± 0.086 | 4.66 ± 0.1
318.15 K, x2 = 0.7708 | 4.53 ± 0.091 | 4.24 ± 0.09
323.15 K, x2 = 0.0718 | 2.07 ± 0.041 | 12.88 ± 0.29
323.15 K, x2 = 0.1358 | 2.22 ± 0.044 | 11.74 ± 0.26
323.15 K, x2 = 0.1942 | 2.37 ± 0.048 | 10.81 ± 0.24
323.15 K, x2 = 0.2886 | 2.66 ± 0.053 | 9.3 ± 0.2
323.15 K, x2 = 0.3569 | 2.9 ± 0.058 | 8.31 ± 0.18
323.15 K, x2 = 0.431 | 3.19 ± 0.064 | 7.34 ± 0.16
323.15 K, x2 = 0.5238 | 3.63 ± 0.073 | 6.28 ± 0.13
323.15 K, x2 = 0.6162 | 4.12 ± 0.083 | 5.16 ± 0.11
323.15 K, x2 = 0.7143 | 4.78 ± 0.096 | 4.13 ± 0.09
323.15 K, x2 = 0.7708 | 5.06 ± 0.1 | 3.75 ± 0.08
328.15 K, x2 = 0.0718 | 2.31 ± 0.046 | 11.39 ± 0.25
328.15 K, x2 = 0.1358 | 2.48 ± 0.05 | 10.41 ± 0.23
328.15 K, x2 = 0.1942 | 2.65 ± 0.053 | 9.6 ± 0.21
328.15 K, x2 = 0.2886 | 2.96 ± 0.059 | 8.28 ± 0.18
328.15 K, x2 = 0.3569 | 3.21 ± 0.064 | 7.41 ± 0.16
328.15 K, x2 = 0.431 | 3.54 ± 0.071 | 6.56 ± 0.14
328.15 K, x2 = 0.5238 | 4.02 ± 0.08 | 5.63 ± 0.12
328.15 K, x2 = 0.6162 | 4.57 ± 0.091 | 4.61 ± 0.1
328.15 K, x2 = 0.7143 | 5.29 ± 0.11 | 3.68 ± 0.08
328.15 K, x2 = 0.7708 | 5.61 ± 0.11 | 3.35 ± 0.07
333.15 K, x2 = 0.0718 | 2.58 ± 0.052 | 10.14 ± 0.23
333.15 K, x2 = 0.1358 | 2.75 ± 0.055 | 9.29 ± 0.2
333.15 K, x2 = 0.1942 | 2.93 ± 0.059 | 8.58 ± 0.19
333.15 K, x2 = 0.2886 | 3.27 ± 0.065 | 7.42 ± 0.16
333.15 K, x2 = 0.3569 | 3.54 ± 0.071 | 6.65 ± 0.14
333.15 K, x2 = 0.431 | 3.91 ± 0.078 | 5.89 ± 0.12
333.15 K, x2 = 0.5238 | 4.43 ± 0.089 | 5.07 ± 0.11
333.15 K, x2 = 0.6162 | 5.01 ± 0.1 | 4.15 ± 0.09
333.15 K, x2 = 0.7143 | 5.83 ± 0.12 | 3.3 ± 0.07
333.15 K, x2 = 0.7708 | 6.17 ± 0.12 | 3.01 ± 0.06
